Source: patent EP4628074A1, “N-PALMITOYLETHANOLAMIDE FOR USE IN COMBINATION WITH A NON-STEROIDAL ANTI-INFLAMMATORY DRUG IN THE TREATMENT OF INFLAMMATORY PAIN” (priority 2024, dated 2025)
Values joined by “and” are separate entries in the source; they are usually repeats but may differ in a detail not shown here. Equal values may be shown once. “Also recorded” adds a separate entry of the source.

How the values were obtained:
[1] = test system: inflammatory pain induced by sub-plantar injection of carrageenan; experiment: Von Frey filaments, inflammatory pain induced by sub-plantar injection of carrageenan (Experiment 3); format: in vivo, adult male Sprague-Dawley rats
Protocol: The experimental inflammatory pain model was induced through a sub-plantar injection of carrageenan (CAR) saline solution (0.1 mL of a 1% suspension of CAR in 0.85% saline). […] The PEA used in this experiment was in unprocessed (native) form. Von Frey filaments were used to evaluate pain, recording for each animal the mechanical tolerance threshold, i.e. the pressure (expressed in grams) endured before retracting the paw. The measurement took place using an analgesimeter (Ugo Basile, Comerio, Varese, Italy) and was conducted before the sub-plantar injection of the CAR and at the time of maximum damage (5 hours later).
(§1) The effect on pain was analyzed using Generalized Linear Model (GLM) followed by post-hoc analysis based on Tukey-Kramer correction for multiple comparisons. […] All analyses were performed using SAS software, version 9.4 (SAS Institute, Cary, NC, USA). P value < 0.05 was considered significant.

[2] = in vivo; cited from earlier work
[3] = test system: collagen-induced arthritis; experiment: Paw volume by plethysmometry in collagen-induced arthritis (CIA) (Experiment 2); format: in vivo, Female Lewis rats; details: for Pr > F: 2x2 factorial analysis on swelling of the paw, PEA 30 mg/kg, ibuprofen 5 mg/kg, PEA*IBU = interaction (synergy)
Protocol: (§2) Rheumatoid arthritis is a disease characterized by inflammatory pain, in which the involved joints present swelling, stiffness and often erosive processes. Female Lewis rats were maintained on a 12/12 hour light/dark cycle, at constant temperature and humidity and acclimated for 1 week, with free access to water and standard diet. […] Arthritis score, change in paw volume (mL), and change in body weight (g) were measured as indicators of inflammatory pain. Arthritis severity was measured every other day starting on day 25, using the following score: 0 = no sign of arthritis; 1 = swelling and/or redness of the paw or toe; 2 = two joints involved; 3 = more than two joints involved; and 4 = severe arthritis of the entire paw and toes. The arthritis index for each subject was calculated by adding the four scores of the individual paws. The change in paw volume compared to day 21 was assessed every two days by plethysmometry (Ugo Basile) starting from day 25. The change in weight was measured for each animal on day 21 and then every two days starting from day 25.
The chosen inflammatory pain indicators were analyzed via Generalized Linear Model (GLM) followed by post-hoc analysis based on Tukey-Kramer correction for multiple comparisons. […] All analyzes were performed using SAS software, version 9.4 (SAS Institute, Cary, NC, USA).

[4] = test system: CFA-induced inflammatory pain; experiment: Paw pressure test, CFA-induced inflammatory pain, single (acute) oral administration (Experiment 1); format: in vivo, male Sprague-Dawley rats; details: for Pr > F: PEA 10 mg/kg
Description: In the in vivo experimentation, male Sprague-Dawley rats (200-250 g) (Envigo, Varese, Italy) fed "ad libitum" and housed in cages with a controlled sleep/wake cycle were used.
Before the start of the study, the animals were subjected to a 1-week acclimatization period at the Center for Laboratory Animal Sheltering (Ce.S.A.L.) of the University of Florence, following all experimental procedures and protocols compliant with the principles of care and welfare of laboratory animals approved by the Italian Ministry of Health (Italian Legislative Decree 2014/26), European directives (EU Directive 2010/63) and the ARRIVE guidelines.
In order to cause inflammatory pain, Complete Freund's Adjuvant (CFA) was injected at a rate of 50 µL into the joint cavity of the left leg between the tibiofibular and tarsal bones after light anesthesia with 2% isoflurane. The control group was subjected to the same procedure, injecting an equal volume of saline solution (vehicle).
The animals were divided into 9 groups of 6 rats each and treated acutely per os with a single administration, starting from the seventh day after the induction of joint damage. • Group 1: healthy rats subjected to intra-articular injection of saline (vehicle group) • Group 2: rats injected with CFA and treated with 1% CMC, corresponding to the vehicle in which the compounds for the treatments of the following groups were suspended (CFA group); • Group 3: rats injected with CFA and treated with micronized PEA 10 mg/kg; • Group 4: rats injected with CFA and treated with diclofenac 30 mg/kg; • Group 5: rats injected with CFA and treated with diclofenac 3 mg/kg; • Group 6: rats injected with CFA and treated with diclofenac 3 mg/kg + micronized PEA 10 mg/kg; • Group 7: rats injected with CFA and treated with meloxicam 30 mg/kg; • Group 8: rats injected with CFA and treated with meloxicam 3 mg/kg; • Group 9: rats injected with CFA and treated with meloxicam 3 mg/kg + micronized PEA 10 mg/kg.
All animals were subjected to the paw pressure test at the level of the ipsilateral paw, performed before (T0) or after 15, 30, 45 and 60 minutes after the single administration of the treatment (T15, T30, T45 and T60, respectively). In particular, the nociceptive threshold was calculated with an analgesiometer (Ugo Basile, Varese, Italy) by applying an increasing pressure at constant speed (32 g/s) by means of a non-pointed conical support on the dorsal surface of the ipsilateral paw with respect to the injection of CFA (or vehicle). The nociceptive threshold was expressed as the force (in decagrams, dag) to which the animal reacts by retracting the paw or vocalizing (Leighton GE et al. kappa-Opioid agonists produce antinociception after i.v. and i.c.v. but not intrathecal administration in the rat. Br J Pharmacol. 1988; 93: 553-60).
The values emerged from the paw pressure test in the different treatment groups were compared with each other using the Generalized Linear Mixed Model (GLMM) followed by post-hoc analysis based on Tukey-Kramer correction for multiple comparisons, referring to the single treatment group, considering all the times.
The AUC was analyzed by a two-way factor analysis of variance (2x2 ANOVA), after plotting the mean values, according to the procedure shown by Slinker BK. The statistics of synergism. J Mol Cell Cardiol. 1998 Apr;30(4):723-31. The values were expressed as mean ± standard error mean (SEM). All the statistical analyses were carried out using the software SAS, version 9.4 (SAS Institute, Cary, NC, USA). The value p < 0.05 was considered significant.

[5] = test system: collagen-induced arthritis; experiment: Body weight change in collagen-induced arthritis (CIA) (Experiment 2); format: in vivo, Female Lewis rats; details: PEA 30 mg/kg; for Pr > F: 2x2 factorial analysis on weight change, ibuprofen 5 mg/kg, PEA*IBU = interaction (synergy)
Protocol: as §2
as §1, with “The chosen inflammatory” for “The effect on”, “pain indicators were” for “pain was”, “analyzed via” for “analyzed using”, “All analyzes” for “All analyses”

## CCCCCCCCCCCCCCCC(=O)NCCO [PEA, N-palmitoylethanolamide]
[1]; 2x2 factorial analysis on tolerance threshold (Von Frey), native PEA 100 mg/kg, ibuprofen 5 mg/kg, PEA*Ibu = interaction (synergy)
  Pr > F: 0,0046
[1]; single oral administration 30 minutes before carrageenan, measured 5 hours later, unprocessed (native) PEA 100 mg/kg and/or ibuprofen 5 mg/kg
  mechanical tolerance threshold compared to the vehicle-treated group: inactive dose
[2]
  dose free of acute and sub-chronic toxicity: ≥ 1000 mg/kg daily
[3]; 6° giorno di trattamento
  Pr > F: 0,0002
[3]; 8° giorno di trattamento
  Pr > F: <0,0001
[3]; 10° giorno di trattamento
  Pr > F: <0,0001
[3]; single administration of PEA 30 mg/kg or ibuprofen 5 mg/kg (not combined)
  effect on paw volume increase: had no effect
[4]; ANOVA 2x2 on AUC of paw pressure test (Figure 2), diclofenac 3 mg/kg, line PEA*Dicl 3 = interaction (synergy)
  Pr > F: 0.0002
[4]; ANOVA 2x2 on AUC of paw pressure test (Figure 4), meloxicam 3 mg/kg, line PEA*Mel 3 = interaction (synergy)
  Pr > F: 0.0003
[4]; CFA-injected rats, single per os administration on day 7, micronized PEA 10 mg/kg and/or NSAID 3 mg/kg, GLMM with Tukey-Kramer
  p with respect to the CFA group (pain tolerance threshold): 0.9674 and 0.9588
[4]; CFA-injected rats, single per os administration on day 7 after CFA, micronized PEA 10 mg/kg and/or NSAID 3 mg/kg, T0-T60 min, all times considered
  pain tolerance threshold with respect to the CFA group: no significant difference; also recorded: no significant effect
[5]; 6° giorno di trattamento (G31)
  Pr > F: <0,0001
[5]; 8° giorno di trattamento (G33)
  Pr > F: <0,0001
[5]; 10° giorno di trattamento (G35)
  Pr > F: <0,0001
[5]; from the 4th day of treatment (day 29) for the entire observation period, low-dose ibuprofen 5 mg/kg, high-dose IBU 30 mg/kg
  effect on weight reduction induced by arthritis pain: neither PEA nor low-dose ibuprofen exerted any effect
